From US20240351960A1, “METHOD FOR PRODUCING […] THIO[…], AND USE OF COMPOUND IN NITROGEN FERTILIZER FORMULATIONS” (NOVAEM BBTRADE, priority 2021, published 2024)
Values joined by “and” are separate entries in the source; they are usually repeats but may differ in a detail not shown here. Identical values can stand only once.

Assays:
urease [1] = assay: Volatilization of urea from garden soil treated with urea containing PTA (Example 2); settings: garden soil 1500 g, urea containing 0.1 wt % PTA (as third precipitate, at least 75% PTA), after four days, mass percent; control without PTA 15.4%
Description: Three 1500 g samples of garden soil were prepared, placed in airtight containers. One sample was treated with urea containing no PTA, and two samples with urea containing 0.1 wt % PTA. The amount of urea was the same for each sample. The PTA was the “third precipitate” within the meaning of the object of the present invention. It contained at least 75% by weight of PTA; the indication “0.1% by mass of PTA” refers here to the total mass of the third precipitate and not to the pure PTA which it contains.
Each soil sample was treated with 250 g of water before depositing the urea samples treated or not with PTA on the surface. The volatilization of urea was determined after four days, expressed in mass percent. For this, a current of air was conveyed above each sample using a membrane pump, and this air was led through a citric acid solution which fixes the ammonia by transforming it into ammonium. The citric acid solution was then titrated with a sodium hydroxide solution to calculate the amount of ammonia that had reacted with the citric acid solution. From the quantity of ammonia, the quantity of urea having generated it is calculated.
In this test, the earth was taken from a single location, and the containers were stored side by side in the same room. It can therefore be assumed that each batch was exposed to the same experimental conditions.

urease [2] = assay: Rate of urea volatilization from agricultural earth treated with urea fertilizer containing PTA (Examples 4 and 5); settings: after four days; for rate of urea volatilization: control 45.81%
Description: Three identical samples of agricultural earth were supplied. A first sample of this earth was treated with a urea fertilizer containing 0.2% by weight of the third precipitate. This precipitate contained at least 75% by weight of PTA; the indication “0.2% by mass of PTA” refers here to the total mass of the third precipitate and not to the pure PTA which it contains. A second sample of this earth was treated with the same quantity of the same fertilizer comprising 0.2% by mass of TPTA (in the sense indicated above for PTA). The third earth sample was treated with the same amount of the same fertilizer containing no urease inhibitor. The rate of urea volatilization was determined after four days of exposure:
Following the test described in Example 4, the dose effect of the PTA was determined by treating identical agricultural earth samples with a urea fertilizer comprising 0.05%, 0.1% and 0.2% by mass of PTA (in the sense indicated above: quantity of third precipitate).

## NP(N)(N)=O [PTA, phosphoryl triamide]
Urease [1]
  volatilization of urea: 1.5% and 3.05%
Urease [2]; 0.2% by mass of PTA, versus control
  volatilization of urea is reduced by: approximately 75%
Urease [2]; urea fertilizer with 0.05% by mass of PTA (quantity of third precipitate)
  rate of urea volatilization: 34.19%
Urease [2]; urea fertilizer with 0.1% by mass of PTA (quantity of third precipitate)
  rate of urea volatilization: 29.56%
Urease [2]; urea fertilizer, printed as 0.02% PTA (quantity of third precipitate)
  rate of urea volatilization: 11.55%
